“Also recorded” adds a separate entry of the source.
Columns and labels:
[1] = system: agroinfiltrated leaves of the Arabidopsis bak1-4 mutant; test: Receptor internalization in agroinfiltrated leaves of the Arabidopsis bak1-4 mutant; assay type: cell-based, Arabidopsis thaliana; details: 10 μM flg22, 30 min
Procedure: D) Relative variation of fluorescence in agroinfiltrated leaves of the Arabidopsis bak1-4 mutant expressing the indicated receptors and treated for 30 min with 10 μM flg22. Each value was normalised against fluorescence measured after 10 min of stimulation.
The GFP-dependent fluorescence was monitored from 2 to 4 days post infection in cells of the lower epidermis. Pieces of leaf were randomly cut from the infected area and mounted in water or supplemented with elicitors for microscopic observations. Flg22 and elfl8 were used at 10 μM while oligosaccharides were used at 100 μg/mL. Materials were analyzed using a Leica DM IRE epifluorescence microscope equipped with a digital cooled camera (DFC350FX R2; Leica). GFP fluorescence was excited with a 488-nm laser line, and emitted fluorescence was collected at 543-nm. The Leica Confocal Software and Adobe Photoshop 5.0 were used for post-acquisition image processing. All samples were imaged with the 40× or 100× oil objectives. Pictures were taken in Kahlman frame giving an average of 16 scans for the dynamics of internalization and 4 scans for the cellular localizations.
The authors also tested whether the presence of the LRR-RLK BAK1 (Nam & Li 2002), a protein required for flg22 and elfl8 signalling (Chinchilla et al., 2007), is also required for the internalization of eJMC induced by flg22.

[2] = system: Pseudomonas syringae DC3000; test: Pseudomonas DC3000 infection of Arabidopsis Ws-0 plants by spraying; assay type: in vivo; details: transgenic Ws-0 plants vs Ws-0 wild type, 4 days post infection
Text: C) Pseudomonas DC3000 infections. (Left Panel) Symptoms disease of wild type and transformed plants after 4 days post infection. (Right panel) Growth of Pseudomonas syringae DC3000 after 4 day post infection. ***, p<0.005.
The authors therefore infected A. thaliana plants by spraying Pst DC3000 bacteria onto leaf surfaces. […] Higher resistance of eJMC plants, compared to Ws-0 wild-type plants, was found in all of three independent experiments.

[3] = system: Pectobacterium carotovorum subsp. carotovorum; test: Infection assay with Pectobacterium carotovorum on transgenic Arabidopsis leaves; assay type: in vivo; details: transgenic Arabidopsis vs Col-0 or Col-0 efr, 24 h, 5×10^7 CFU/ml
Procedure: Inoculum concentration was 5×10^7 CFU/ml). Values are means±SE of at least 16 lesions. Asterisks indicate statistically significant differences against control plants (Col-0 or Col-0 efr), according to Student's t test (*, p<0.0005).
Agrobacterium tumefaciens GV3101 strain infections was performed as described in Katagiri et al., (2002) and using a concentration of Agrobacterium corresponding at an OD600 of 1.0 in 10 mM MgCl2 and 600 μM acetosyringone. After 24 h of infiltration, serial dilution of Agrobacterium colonies were deposited on LB agar supplemented with gentamycin and rifampicin and grown for 2-3 days at 28° C. in the dark. At least 5 independent plants and 3 different leaves by plant, were used per experiment. Pectobacterium carotovorum subsp. carotovorum infections Pectobacterium carotovorum subsp. carotovorum (formely Erwinia carotovora; Gardan et al., 2003) (strain DMSZ 30169) was obtained from DSMZ GmbH (Germany). A liquid colture using 10 ml LB medium was prepared. […]
For infection, fully developed leaves of 4 week old Arabidopsis plants were detached and placed in 0.8% agar Petri dishes. […] Symptoms were scored measuring the area of macerated tissue after 24 hour post inoculation at 22° C. and 12 h photoperiod. Area was measured by ImageJ software. […]

[4] = system: B. cinerea; test: Lesion development in Arabidopsis plants inoculated with B. cinerea; assay type: in vivo; details: transgenic Arabidopsis vs Col-0 or Col-0 efr, 48 h post-inoculation
Procedure: (A) Growth of A. tumefaciens in N. tabacum tissues transiently expressing receptor proteins. Tobacco leaves were infiltrated with Agrobacterium carrying the indicated receptor constructs and the number of Agrobacterium colony-forming units (c.f.u.) in the tissues was analyzed immediately after infiltration (white bars) and after 24 h (gray bars). EFR and eJMC were used as positive and negative controls, respectively. For each receptor, three samples were analyzed in five independent experiments. Asterisks indicate statistically significant differences against control (Col-0 for WAK1 plants and Col-0 efr for WEG and EWAK plants). (B) Lesion development in Arabidopsis wild type (Col-0) and mutant Col-0 efr plants and in transgenic plants expressing WAK1, WEG and EWAK plants inoculated with B. cinerea at 48 h post-inoculation. Values are means±s.e.m. of at least 16 lesions. The same experiment was performed in a second independent transgenic line expressing WAK1 with similar results. Asterisks indicate statistically significant differences against control (Col-0 for WAK1 plants and Col-0 efr for WEG and EWAK plants).

[5] = system: transgenic Arabidopsis leaves; test: Constitutive activation of defense responses (H2O2, callose) in transgenic plants; assay type: cell-based, Arabidopsis thaliana; details: no elicitor
Procedure: Leaves were stained with 3,3′-diaminobenzidine (DAB) for H2O2 visualization (upper panel) and with aniline blue for callose visualization (lower panel).
3,3′-diaminobenzidine (DAB) staining, callose deposition and gene resistance analysis were assayed as described (Galletti et al., 2008). For measuring active oxygen species released by tobacco agroinfiltrated plants after elicitor treatment, the authors used a modified luminol-dependent assay (Gomez et al., 1999). Slices, corresponding to approximately 30 mg fresh weight, were transferred to assay tubes containing 1 μM flg22 or 10 μM elfl8 in aqueous solution supplied with 40 μM luminol (SIGMA). Chemo-luminescence was measured in a liquid scintillation counter (LS-6500, Beckman) after 5 and 15 min upon addition of elicitors.

[6] = system: At3g22270 and At4g37640 transcripts; test: Elicitor-induced At3g22270 and At4g37640 expression, semi-quantitative PCR, Arabidopsis Col-0 / Col-0 efr; assay type: cell-based, Arabidopsis thaliana; details: transgenic Col-0 efr plants
Procedure: (A) Induction of ethylene biosynthesis in agroinfiltrated tobacco explants expressing EFR, WAK1, WEG and EWAK. […] Agroinfiltrated leaf tissues expressing EFR or WEG and elicited with OGs or elfl8 respectively, represented our negative control. Values are means±s.e.m. (N=3). (B) Elicitor-induced gene expression in untransformed Col-0 and Col-0 efr plants, and in transgenic Arabidopsis Col-0 efr plants stably expressing WEG. Accumulation of At3g22270 and At4g37640 transcripts was analysed by semi-quantitative PCR, using the UBQ5 gene for normalization. Adult leaves were syringe-infiltrated with water, OGs (25 μg/ml) or elfl8 (10 μM) for 3 h. The experiment was repeated three times with similar results. The same experiment was performed in a second independent transgenic line expressing WEG with similar results.
The ability of WEG to activate downstream responses upon stimulation with OGs was analysed in agroinfiltrated tobacco.

FLS2 [reference compound]
internalization induced by flg22 in the bak1-4 mutant [1]: nearly abolished
development of disease symptoms / susceptibility to Pst DC3000 [2]: Ws-0 plants showed a faster and more severe development of disease symptoms
numbers of bacteria in leaves [2]: higher numbers of bacteria in Ws-0

eJMC: chimera (Arg806FLS2-Val650EFR): LRR and eJM domains of FLS2 fused upstream of TM, iJM and kinase domains of EFR, GFP-fused
internalization induced by flg22 in the bak1-4 mutant [1]: not affected
development of disease symptoms / susceptibility to Pst DC3000 [2]: Ws-0 plants showed a faster and more severe development of disease symptoms; also recorded: less susceptible
numbers of bacteria in leaves [2]: higher numbers of bacteria in Ws-0

B1: WEG: chimeric receptor: WAK1 ectodomain fused to the TM-iJM-kinase portion of EFR, GFP-fused (protein)
chain: QHQPGENCQNKCGNITIEYPFGISSGCYYPGNESFSITCKEDRPHVLSDIEVANFNHSGQLQVLLNRSSTCYDEQGKKTEEDSSFTLENLSLSANNKLTAVGCNALSLLDTFGMQNYSTACLSLCDSPPEADGECNGRGCCRVDVSAPLDSYTFETTSGRIKHMTSFHDFSPCTYAFLVEDDKFNFSSTEDLLNLRNVMRFPVLLDWSVGNQTCEQVGSTSICGGNSTCLDSTPRNGYICRCNEGFDGNPYLSAGCQDVNECTTSSTIHRHNCSDPKTCRNKVGGFYCKCQSGYRLDTTTMSCKRKEVVSGICIGIASLLLIIIVASLCWFMKRKKKNNASDGNPSDSTTLGMFHEKVSYEELHSATSRFSSTNLIGSGNFGNVFKGLLGPENKLVAVKVLNLLKHGATKSFMAECETFKGIRHRNLVKLITVCSSLDSEGNDFRALVYEFMPKGSLDMWLQLEDLERVNDHSRSLTPAEKLNIAIDVASALEYLHVHCHDPVAHCDIKPSNILLDDDLTAHVSDFGLAQLLYKYDRESFLNQFSSAGVRGTIGYAAPEYGMGGQPSIQGDVYSFGILLLEMFSGKKPTDESFAGDYNLHSYTKSILSGCTSSGGSNAIDEGLRLVLQVGIKCSEEYPRDRMRTDEAVRELISIRSKFFSSKTTITESPRDAPQSSPQEWMLNTDMHTM
modifications: left off: large carriers
resistance to Pectobacterium carotovorum subsp. carotovorum [3]: increased resistance; also recorded: confers resistance
resistance to B. cinerea infection [4]: increased resistance; also recorded: confers resistance
constitutive activation of defense responses (H2O2 levels, callose deposits) [5]: do not show constitutive activation of defense responses
induction of At3g22270 and At4g37640 by other elicitors ([6]; 3 h): not by other elicitors
induction of At3g22270 and At4g37640 by OGs ([6]; OGs 25 μg/ml, 3 h): induced by OGs
constitutive activation of At3g22270 and At4g37640 expression ([6]; water controls): No constitutive activation

— patent US9499823B2, “Constructs expressing chimeric receptors and use thereof for the controlled activation of defence response to pathogens in plants” (priority 2009, dated 2016)
